Test results as given in article PMC10141604, “Small-Molecule Inhibition of Androgen Receptor Dimerization as a Strategy against Prostate Cancer” (ACS Central Science, 2023).

What was measured:
AR LBD = target: T1, AR LBD (Homo sapiens, UniProt P10275); experiment: Biolayer interferometry (BLI) binding to purified AR LBD
T1 construct: The AR LBD (663-919) was fused into the pET50b vector with Nus-tag; Nus-tag (cleaved yes); made in house; host or cells: E. coli BL21 (DE3)
Experimental: in 4 L LB media at 37°C until OD600 arrived to 0.6, then supplemented with 0.5 mM Isopropyl β-D-1-Thiogalactopyranoside (IPTG) and 20 μM DHT. After incubated at 16 °C for 16-18 h, the cells were collected by centrifugation at 3,500 × g for 0.5 h. The cell mass was resuspended in Lysis buffer (20 mM Tris -HCL pH 7.4, 5 mM imidazole,150 mM NaCl, 10% Glycerol, 2 mM Dithiothreitol (DTT) and 10 μM DHT) and lysed at 800 bar for at least 5 cycles. The lysis was centrifugated at 14,000 × g for 0.5 h, and the supernatant was loaded to HisTrap TM […] HP column (#17524802, GE Healthcare), followed by washing and eluting steps using 65 mM imidazole and 300 mM imidazole, respectively.
The elution from Ni-NTA were cut by HRV-3C protease, and further purified by […]
The purified AR LBD protein was biotinylated using EZ-Link™ Sulfo-NHS-LC-LC-Biotin (#A35358, ThermoFisher) in 500 μL phosphate -buffered saline with 0.02% Tween -20 (v/v, PBST) buffer for 2 h at 4 °C. […] The kinetics of the AR LBD and M17-B15 association was evaluated by soaking the AR LBD-loaded sensors into wells containing various concentrations of M17 -B15 (6.25, 12.5, 25, 50, 100 μM) for 60 s, followed by dissociation of M17 -B15 by soaking the sensors in the PBST buffer for 60 s. The kinetics values were calculated by fitting the kinetic data based on a 1:1 binding model using Forté Bio data analysis (v.11.1) software .

AR LBD dimer = target: T2, AR LBD dimer (Homo sapiens, UniProt P10275); experiment: SAXS and CXMS analysis of AR LBD dimerization; format: biochemical
T2 construct: The AR LBD (663-919) was fused into the pET50b vector with Nus-tag; Nus-tag (cleaved yes); made in house; host or cells: E. coli BL21 (DE3)
T2 sequence (P10275 663-919): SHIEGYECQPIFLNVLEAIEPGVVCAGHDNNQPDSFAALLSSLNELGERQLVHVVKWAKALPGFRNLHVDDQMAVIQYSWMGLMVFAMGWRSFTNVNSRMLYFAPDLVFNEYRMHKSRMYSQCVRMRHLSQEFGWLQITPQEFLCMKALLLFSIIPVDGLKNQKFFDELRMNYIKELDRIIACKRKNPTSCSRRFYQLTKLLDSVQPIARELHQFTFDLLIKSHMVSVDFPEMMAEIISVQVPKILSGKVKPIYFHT
Experimental: 30 μM AR LBD protein was crosslinked with a 50× molar excess of freshly prepared BS3 (#21580, ThermoFisher) in 20 mM HEPES (pH 7.4), 5% Glycerol, 150 mM NaCl, 10 μM DHT, with or without 90 μM M17-B15. The cross-linking reaction was conducted at room temperature with gentle mixing, and was quenched after 45 min with the addition of Tris-HCl buffer (pH 8.0) to a concentration of 20 mM.
Cross-linked proteins were precipitated with 6-fold volume of pre-cooled acetone for 2 h at -20 °C. Centrifuge at 14,000 rpm for 20 min, and discard the supernatant. Then added 20 μL 100 mM Tris-HCl buffer (pH 8.5), 8 M urea, and ultrasound for 20 min to assist protein dissolution. 5 mM reducing agent TCEP, 10 mM alkylating agent iodoacetamide, 1 mM CaCl2 and 20 mM methylamine were added in tandem. And 3-fold volume of 100 mM Tris pH 8.5 was added to dilute urea to 2 M. Then added trypsin (the mass ratio of enzyme to protein is 1:50) and digested the protein samples at 37 °C for 14 h. Finally, quenched the digestion reaction by adding formic acid with a final […]
An Easy nLC 1000 system (ThermoFisher) coupled to a Velos Pro Orbitrap Elite mass spectrometer (ThermoFisher) was used for mass spectrometry analysis. The resulting peptide mixture was vacuum-centrifuged to dryness, and reconstituted in 0.1% formic acid. […]
respectively. […] The scattering profile for matching buffer was also recorded and was subtracted. […]

T1 sequence (P10275 663-919): as above

## CC(=O)Cc1nsc(NC(=O)c2cc(-c3cccc(C(F)(F)F)c3)oc2C)n1 [Compound M17-B15]
AR LBD; 1:1 binding model, read-out: equilibrium dissociation constant (KD)
  Kd: 13.2 µM
AR LBD; read-out: Kd (dissociation rate)
  koff: 0.033 s⁻¹
AR LBD dimer; upon addition of compound
  Dmax value of the AR LBD (SAXS): markedly reduced
AR LBD dimer; with DHT, 20% without M17-B15
  proportion of the AR LBD dimer: 15%
